Patent US9456555B2, “Agent for treating grape vine wood” (Financiere Mercier, priority 2011, dated 2016)

Key:
grapevine seedlings = test: Percentage of recovery (take) after planting; type: in vivo
From the text: The result of recovery (take) after planting (growth of the plants) is very important, as the treatment must not be injurious for the grapevine seedlings.

[1] = system: Botryosphaeria obtusa, Botryosphaeria dothidea, Eutypa lata, Fomitiporia punctata, Phaeacremonium aleophilum, Phaeomonelia chlamydospora, Phaeoacremonium spp. …; test: Comparative in vivo test of wood disinfection, PCR analysis for presence of 8 fungi; design: species or system grapevine; conditions: immersion 12 h
Procedure: The in vivo test consisted of evaluating a set of 1025 plants derived from 4 rootstocks and 5 different varieties (to limit the varietal effect). Samples of the seedlings were taken before and after treatment. The treatment consisted of immersing the wood in the various solutions under test for 12 h, i.e. the usual rehydration time of the wood in the nursery (overnight). The samples of wood before and after treatment were analyzed, by extracting the total DNA of the wood samples taken, and evaluation by molecular diagnostics (PCR analysis) for the presence or absence of these 8 fungi: Botryosphaeria obtusa, Botryosphaeria dothidea, Eutypa lata, Fomitiporia punctata, Phaeacremonium aleophilum, Phaeomonelia chlamydospora, Phaeoacremonium spp. and Cylindrocarpon destructans. […] If nothing is indicated, it is because it was never found.

[2] = system: 8 fungi referenced as pathogens and associated with various diseases of the wood; test: Comparative in vitro test on PDA medium, mycelium growth; type: cell-based; conditions: 10 ml solution left for 12 h on PDA; observed several weeks, about 25° C.; neutral anolyte 100%
Procedure: That is why an in vitro test was carried out, in order to compare the effect of water, hydrogen peroxide, desogerm and the neutral anolyte (100%) on 8 fungi referenced as pathogens and associated with various diseases of the wood. Strains of the 8 fungi mentioned above were deposited on culture medium with low discrimination (PDA—Potato Dextrose Agar—Medium). Then 10 ml of each solution was added to Petri dishes with the inoculated strains of fungi, and left for 12 h.

Percentage of recovery of the treated seedlings (grapevine seedlings; 8 days after planting): 59% | Percentage of recovery of the treated seedlings (grapevine seedlings; 20 days after planting): 94.8% | alteration of the wood (grapevine seedlings; contact with the cuttings during the rehydration phase): alters the wood
Compound: OO [H2O2, hydrogen peroxide]
fungus found at least once among the individuals evaluated (PCR) ([1]; Merlot.N (182), with THW (50° C.-45 min)): B.obt | fungus found at least once among the individuals evaluated (PCR) ([1]; R110 (151), with THW (50° C.-45 min)): B.obt | fungus found at least once among the individuals evaluated (PCR) ([1]; SO4(203), with THW (50° C.-45 min)): B.obt | fungus found at least once among the individuals evaluated (PCR) ([1]; SO4(203), without THW): E.lata | growth of the fungi (radius of mycelium) [2]: a certain efficacy
